Source: patent US6897288B1, “Mage-A12 antigenic peptides and uses thereof” (Ludwig Institute for Cancer Research, priority 1999, dated 2005)

Tested on: autologous cell line LB-831-EBV pulsed with MAGE-A12 peptides, lysis by CTL 501D/19 (HLA-Cw*07 restricted)
Assay: Chromium release cytotoxicity assay with peptide-pulsed cells
Format: cell-based, human
Details: effector to target ratio of 10, chromium release after 4 hours; for sensitization of peptide-pulsed LB-831-EBV cells to lysis by CTL 501D/19 (recognition by CTL): chromium-labeled cells pulsed 30 min with peptide
Experimental: The lytic activity of CTLs was tested in a chromium release assay as described previously (Boon et al., J. Exp. Med. 152:1184-1193, 1980). Briefly, 1,000 chromium-labeled cells in 100 μl were incubated in 96-well microplates with an equal volume of CTL at different effector to target ratios. Chromium release was measured after 4 h of incubation. For the peptide assay, labeled LB831-EBV cells were incubated for 30 min at 37° C. with various concentrations of peptides. CTL were then added and chromium release was measured as described above.
Cells transfected with fragments of 540 bp or more were capable of stimulating CTL 501D/19, whereas those transfected with shorter fragments were not. […] In the amino-acid sequence corresponding to nucleotides 525-540, two overlapping nonapeptides, EVVRIGHLY (codons 168-176 of MAGE-A12; SEQ ID NO:3) and VRIGHLYIL (codons 170-178 of MAGE-A12; SEQ ID NO:4) were found which conformed to the HLA-Cw7 peptide binding motif, i.e. tyrosine or leucine at the C terminus (Rammensee et al., Immunogenetics. 41:178, 1995). Decapeptide […] (SEQ ID NO:5), nonapeptide VRIGHLYIL (SEQ ID NO:4) and octapeptide RIGHLYIL (SEQ ID NO:6) sensitized the autologous lymphoblastoid cell line LB-83]-EBV to lysis by CTL 501D/19 (FIG. 4). Autologous cell line LB-831-EBV was loaded with MAGE-A12 peptides VRIGHLYIL (SEQ ID NO:4), VVRIGHLYIL (SEQ ID NO:5), or RIGHLYIL (SEQ ID NO:6), and contacted with CTL 501D/19. Chromium-labeled cells were pulsed for 30 min with the indicated concentrations of peptides (VRIGHLYIL (SEQ ID NO:4) or […] (SEQ ID NO:6)). CTL 501D/19 was added at an effector to target ratio of 10. Chromium release was measured after 4 hours.

| Sequence | sensitization of peptide-pulsed LB-831-EBV cells to lysis by CTL 501D/19 (recognition by CTL) | EC50 (LB-831-EBV cells pulsed 30 min, read-out: peptide concentration giving half-maximal lysis by CTL 501D/19) [nM] |
| --- | --- | --- |
| EVVRIGHLY (listed as Homo sapiens) [SEQ ID NO:3, nonapeptide, codons 168-176 of MAGE-A12] | not recognized |  |
| RIGHLYIL [SEQ ID NO:6] | sensitized |  |
| VRIGHLYIL [SEQ ID NO:4] | sensitized | 0.1 |
| VVRIGHLYIL [SEQ ID NO:5] | sensitized |  |
